How the values were obtained:
[1] = target: ERK1 (Homo sapiens, UniProt P27361); assay: ERK1 and 2 Enzymatic Inhibition Assay (ERK1); assay type: biochemical; conditions: 10 assay concentrations 2×10^−6 M to 6×10^−11 M, 1% DMSO
Description: (§1) ERK1 and 2 Enzymatic Inhibition Assay
(§2) For the Ki determination assay, 200 μM stock solutions of compounds were subjected to a serial, semi-logarithmic dilution using 100% DMSO as a solvent. 10 distinct concentrations were prepared, with a dilution endpoint of 6×10^−9 M in 100% DMSO. 100% DMSO was used as a control. 10 μL from each of the serial dilutions were aliquoted into separate wells of a 96-well plate and 90 μL of water were added to each of those wells. The plate was shaken thoroughly, and 5 μL from each of the plate's wells were transferred into wells of the assay plate. The final volume of wells in the assay plate was 50 μL. All compounds were tested at 10 assay concentrations in the range from 2×10^−6 M to 6×10^−11 M. The final DMSO concentration in the wells of the assay plate was 1% in all cases.

[2] = target: ERK2 (Homo sapiens, UniProt P28482); assay: ERK1 and 2 Enzymatic Inhibition Assay (ERK2); assay type: biochemical; conditions: 10 assay concentrations 2×10^−6 M to 6×10^−11 M, 1% DMSO
ERK2, sequence (P28482 whole entry): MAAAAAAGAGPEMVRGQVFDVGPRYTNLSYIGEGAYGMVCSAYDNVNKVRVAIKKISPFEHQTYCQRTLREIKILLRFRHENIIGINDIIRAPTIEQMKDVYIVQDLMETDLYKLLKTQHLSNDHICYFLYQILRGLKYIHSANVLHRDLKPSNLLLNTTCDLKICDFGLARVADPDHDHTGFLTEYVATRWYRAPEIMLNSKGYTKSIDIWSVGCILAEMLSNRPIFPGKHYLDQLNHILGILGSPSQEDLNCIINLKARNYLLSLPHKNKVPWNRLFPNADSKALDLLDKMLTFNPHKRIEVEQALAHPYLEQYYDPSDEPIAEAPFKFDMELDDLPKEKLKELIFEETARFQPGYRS
Description: as §1, §2

[3] = system: drug-sensitive cell lines of Table 4; assay: Cell line growth retardation assay, average over sensitive cohort; assay type: cell-based, Human; conditions: Homo sapiens, 144 h; geometric mean of IC50s over sensitive cohort (Table 4); 6 days growth; read-out: AvgSens IC50
Description: (§3) Cell Line Growth Retardation Assay
(§4) Cells were seeded at densities of 1,000-5,000 cells per well in 48-well tissue culture plates. After a 24 h rest period, cells were treated with compound at 10 μM, 2 μM, 0.4 μM, 0.08 μM, 0.016 μM, and 0.0032 μM. A group of cells were treated with the vehicle in which the compound was prepared and served as a control. The cells were grown in the presence of compounds for 6 days and were counted on day 0 and day 6. All cell counting was performed using a Synentec Cellavista plate imager. […] Growth inhibition was calculated as a ratio of cell population doublings in the presence of compound versus the absence of compound. […] IC50 values for each compound were calculated by fitting curves to data points from each dose-response assay using the Proc NLIN function in SAS for Windows version 9.2 (SAS Institute, Inc.).
(§5) Designation of Sensitivity and Resistant Cohorts and Calculation of Average IC50 Values
(§6) Human cancer cell lines were grouped as “sensitive” or “resistant” to ERK1 inhibition based on whether their growth was retarded by KO-947 (i.e., 1,5,6,8-tetrahydro-6-(phenylmethyl)-3-(4-pyridinyl)-7H-pyrazolo[4,3-g]quinazolin-7-one) and SCH772984 (i.e., (3R)-1-[2-oxo-2-[4-[4-(2-pyrimidinyl)phenyl]-1-piperazinyl]ethyl]-N-[3-(4-pyridinyl)-1H-indazol-5-yl]-3-pyrrolidinecarboxamide) (data not shown; see Table 4). These sensitive and resistant cohorts were interrogated for response to each compound, and IC50s were calculated for each cell line using the same technique described above. Average IC50s for the sensitive and resistant cohorts were calculated as geometric means of the group.

[4] = system: drug-resistant cell lines of Table 4; assay: Cell line growth retardation assay, average over resistant cohort; assay type: cell-based, Human; conditions: Homo sapiens, 144 h; geometric mean of IC50s over resistant cohort (Table 4); 6 days growth; read-out: AvgRes IC50
Description: as §3, §4, §5, §6

[5] = Compound metabolic stability in hepatocytes; assay type: in vitro ADME; conditions: hepatocytes from mice and rats (species not given); class symbols without key
Description: The metabolic stability of compounds was determined in hepatocytes from mice and rats. Compounds were diluted to 5 μM in Williams' Medium E from 10 mM stock solutions. 10 μL of each compound was aliquoted into a well of a 96-well plate and reactions were started by aliquoting 40 μL of a 625,000 cells/mL suspension into each well. The plate was incubated at 37° C. with 5% CO2. At each corresponding time point, the reaction was stopped by quenching with ACN containing internal standards (IS) at a 1:3. Plates were shaken at 500 rpm for 10 min, and then centrifuged at 3,220×g for 20 minutes. Supernatants were transferred to another 96-well plate containing a dilution solution. Supernatants were analyzed by LC/MS/MS.
Compound half-life was estimated using the following equation: % Remaining Compound=Peak Area Ratios of Tested Compound vs. Internal Standard at End Point/Peak Area Ratios of Tested Compound vs. Internal Standard at Start Point Mouse Xenograft Studies

[6] = Mouse Maximum Tolerated Dose Studies; assay type: in vivo; conditions: mice, oral gavage (PO)
Description: Mouse Maximum Tolerated Dose Studies
For maximum tolerated dose (MTD) determination studies, non-tumor bearing CD-1 athymic nude mice were randomized into […] treatment groups (5 mice per group) and treated with either 400, 300, 200, 100, 50 or 25 mg/kg of compound by daily PO, or 200, 100, 50, 25, or 12.5 mg/kg of compound twice daily PO. Mice were weighed daily and % body weight loss was calculated relative to individual mouse body weights at the start of treatment. […] MTD was determined as the highest dose at which a mean body weight loss of <10% over 14 days of dosing was observed.

[7] = system: phosphorylated RSK (pRSK) in M275 cells; assay: Western Blot for Total and pRSK; assay type: cell-based, human; conditions: treatment for 4.5 hours and 24 hours, 200 nM
Description: Western Blot for Total and pRSK
For Western blot assays (see FIG. 14), protein lysates were obtained from either the M275 or M202 human melanoma cancer cell lines. For assay, cells were plated on 10 cm dishes and treated 24 hours later with either 200 nM of test compound in DMSO or DMSO control for 4.5 or 24 hours. After the treatment period, cells were washed twice in ice-cold PBS and lysed for 15 minutes at 4° C. using a mild lysis buffer (Cell Signaling Technology) containing a mixture of protease inhibitors (Calbiochem) and 1 mmol/L phenlymethylsulfonlyfluoride. Insoluble material was removed by centrifugation at 10,000×g for 10 minutes. Protein concentration of each sample was quantified by BCA (Pierce), resolved by SDS-PAGE, and transferred to nitrocellulose membranes (iBlot, Invitrogen Life Technology). Total (32D7, Cell Signaling Technologies) and phosphorylated ([…]; D1E9, Cell Signaling Technology) RSK protein were detected using the indicated antibody clones. All blots were repeated in duplicate and relative levels of individual proteins compared to a loading control (α-tubulin) (11H10; Cell Signaling Technology) were quantitated using the ECL Plus chemifluorescent reagent (Amersham Biosciences) and the ChemiDoc™ Touch Imaging System (BioRad).

ERK1, sequence (P27361 whole entry): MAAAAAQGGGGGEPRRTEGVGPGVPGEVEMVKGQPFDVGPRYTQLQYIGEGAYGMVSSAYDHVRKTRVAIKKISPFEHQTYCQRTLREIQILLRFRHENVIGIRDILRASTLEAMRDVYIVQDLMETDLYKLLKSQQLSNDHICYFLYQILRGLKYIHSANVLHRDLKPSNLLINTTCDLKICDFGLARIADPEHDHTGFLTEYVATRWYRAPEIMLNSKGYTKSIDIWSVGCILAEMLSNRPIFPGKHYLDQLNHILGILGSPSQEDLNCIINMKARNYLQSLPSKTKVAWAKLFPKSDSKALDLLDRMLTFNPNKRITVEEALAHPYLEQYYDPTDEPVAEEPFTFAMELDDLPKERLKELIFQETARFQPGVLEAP

**Q.** With `C[C@H](Cc1ccccc1)NC(=O)c1ncc(-c2c[nH]c3ncc(N4CCOCC4)cc23)cn1` [Compound 31, (R)-5-(5-morpholino-1H-pyrrolo[2,3-b]pyridin-3-yl)-N-(1-phenylpropan-2-yl)pyrimidine-2-carboxamide] as the compound, how does the Kd [1] read?
**A.** ≤ 10 nM

**Q.** And the Kd [2]?
**A.** ≤ 10 nM

**Q.** What about the IC50 [3] of the same compound?
**A.** > 500 nM

**Q.** And the IC50 [4]?
**A.** > 500 nM

**Q.** What about the half-life at 1 µM [5] of the same compound?
**A.** < 25 min

**Q.** Which results are given for `C[C@@H](NC(=O)c1ncc(-c2c[nH]c3ncc(N4CCOCC4)cc23)cn1)c1ccc(Cl)cc1` [Compound 25, (R)—N-(1-(4-chlorophenyl)ethyl)-5-(5-morpholino-1H-pyrrolo[2,3-b]pyridin-3-yl)pyrimidine-2-carboxamide]?
**A.** Kd [1]: ≤ 10 nM; Kd [2]: ≤ 10 nM; IC50 [3]: > 500 nM; IC50 [4]: > 500 nM; half-life at 1 µM [5]: > 25 min

**Q.** Which results are given for `O=C(NCCc1ccccc1)c1ncc(-c2c[nH]c3ncc(N4CCOCC4)cc23)cn1` [Compound 11, 5-(5-morpholino-1H-pyrrolo[2,3-b]pyridin-3-yl)-N-phenethylpyrimidine-2-carboxamide]?
**A.** Kd [1]: ≤ 10 nM; Kd [2]: ≤ 10 nM; IC50 [3]: 251 to 500 nM; IC50 [4]: > 500 nM; half-life at 1 µM [5]: < 25 min

**Q.** For `c1ccc([C@H]2COC(c3ncc(-c4c[nH]c5ncc(N6CCOCC6)cc45)cn3)=N2)cc1` [Compound 27, (S)-4-(3-(2-(4-phenyl-4,5-dihydrooxazol-2-yl)pyrimidin-5-yl)-1H-pyrrolo[2,3-b]pyridin-5-yl)morpholine], which Kd [1] is on record?
**A.** ≤ 10 nM

**Q.** And the Kd [2]?
**A.** ≤ 10 nM

**Q.** What about the IC50 [3] of the same compound?
**A.** > 500 nM

**Q.** What about the IC50 [4] of the same compound?
**A.** > 500 nM

**Q.** And the half-life at 1 µM [5]?
**A.** > 25 min

**Q.** With `CC(NC(=O)c1ncc(-c2c[nH]c3ncc(N4CCOCC4)cc23)cn1)c1ccccc1` (stereo in doubt) [Compound 6, (R)-5-(5-morpholino-1H-pyrrolo[2,3-b]pyridin-3-yl)-N-(1-phenylethyl)pyrimidine-2-carboxamide] as the compound, how does the Kd [1] read?
**A.** ≤ 10 nM

**Q.** And the Kd [2]?
**A.** ≤ 10 nM

**Q.** And the IC50 [3]?
**A.** ≤ 250 nM

**Q.** And the IC50 [4]?
**A.** > 500 nM

**Q.** And the half-life at 1 µM [5]?
**A.** > 25 min

**Q.** And the “maximum tolerated QD dose” value ([6]; daily (QD))?
**A.** 200 mg/kg

**Q.** And the “maximum tolerated BID dose” value ([6]; twice daily (BID))?
**A.** 100 mg/kg

**Q.** And the “level of phosphorylated RSK (pRSK)” value [7]?
**A.** decrease

**Q.** What does the source list for `c1ccc([C@@H]2CN=C(c3ncc(-c4c[nH]c5ncc(N6CCOCC6)cc45)cn3)O2)cc1` [Compound 29, (R)-4-(3-(2-(5-phenyl-4,5-dihydrooxazol-2-yl)pyrimidin-5-yl)-1H-pyrrolo[2,3-b]pyridin-5-yl)morpholine]?
**A.** Kd [1]: 11 to 100 nM; Kd [2]: 11 to 100 nM; IC50 [3]: > 500 nM; IC50 [4]: > 500 nM; half-life at 1 µM [5]: > 25 min

**Q.** For `C[C@@H](NC(=O)c1ncc(-c2c[nH]c3ncc(N4CCOCC4)cc23)cn1)c1cccc(Cl)c1` [Compound 20, (R)—N-(1-(3-chlorophenyl)ethyl)-5-(5-morpholino-1H-pyrrolo[2,3-b]pyridin-3-yl)pyrimidine-2-carboxamide], which Kd [1] is on record?
**A.** ≤ 10 nM

**Q.** What about the Kd [2] of the same compound?
**A.** ≤ 10 nM

**Q.** And the IC50 [3]?
**A.** ≤ 250 nM

**Q.** And the IC50 [4]?
**A.** > 500 nM

**Q.** What about the half-life at 1 µM [5] of the same compound?
**A.** > 25 min

**Q.** For `c1ccc([C@@H]2COC(c3ncc(-c4c[nH]c5ncc(N6CCOCC6)cc45)cn3)=N2)cc1` [Compound 28, (R)-4-(3-(2-(4-phenyl-4,5-dihydrooxazol-2-yl)pyrimidin-5-yl)-1H-pyrrolo[2,3-b]pyridin-5-yl)morpholine], which Kd [1] is on record?
**A.** > 100 nM

**Q.** And the Kd [2]?
**A.** > 100 nM

**Q.** And the IC50 [3]?
**A.** > 500 nM

**Q.** And the IC50 [4]?
**A.** > 500 nM

**Q.** What about the half-life at 1 µM [5] of the same compound?
**A.** > 25 min

**Q.** What does the source list for `Cc1cccc(C(C)NC(=O)c2ncc(-c3c[nH]c4ncc(N5CCOCC5)cc34)cn2)c1` (stereo in doubt) [Compound 50, (R)-5-(5-morpholino-1H-pyrrolo[2,3-b]pyridin-3-yl)-N-(1-(m-tolyl)ethyl)pyrimidine-2-carboxamide]?
**A.** Kd [1]: ≤ 10 nM; Kd [2]: ≤ 10 nM; IC50 [3]: ≤ 250 nM; IC50 [4]: > 500 nM; half-life at 1 µM [5]: > 25 min

**Q.** With `CC(NC(=O)c1ncc(-c2c[nH]c3ncc(N4CCOCC4)cc23)cn1)c1ccccc1` (stereo in doubt) [Compound 22, (S)-5-(5-morpholino-1H-pyrrolo[2,3-b]pyridin-3-yl)-N-(1-phenylethyl)pyrimidine-2-carboxamide] as the compound, how does the Kd [1] read?
**A.** > 100 nM

**Q.** And the Kd [2]?
**A.** > 100 nM

**Q.** And the IC50 [3]?
**A.** > 500 nM

**Q.** What about the IC50 [4] of the same compound?
**A.** > 500 nM

**Q.** And the half-life at 1 µM [5]?
**A.** > 25 min

**Q.** For `O=C(c1ncc(-c2c[nH]c3ncc(N4CCOCC4)cc23)cn1)N1CCCC1c1ccccn1` (centres unmarked) [Compound 26, (5-(5-morpholino-1H-pyrrolo[2,3-b]pyridin-3-yl)pyrimidin-2-yl)(2-(pyridin-2-yl)pyrrolidin-1-yl)methanone], which Kd [1] is on record?
**A.** 11 to 100 nM

**Q.** What about the Kd [2] of the same compound?
**A.** > 100 nM

**Q.** What about the IC50 [3] of the same compound?
**A.** > 500 nM

**Q.** And the IC50 [4]?
**A.** > 500 nM

**Q.** And the half-life at 1 µM [5]?
**A.** < 25 min

**Q.** What does the source list for `O=C(NCc1ccc(C(F)(F)F)cc1)c1ncc(-c2c[nH]c3ncc(N4CCOCC4)cc23)cn1` [Compound 10, 5-(5-morpholino-1H-pyrrolo[2,3-b]pyridin-3-yl)-N-(4-(trifluoromethyl)benzyl)pyrimidine-2-carboxamide]?
**A.** Kd [1]: > 100 nM; Kd [2]: > 100 nM; IC50 [3]: > 500 nM; IC50 [4]: > 500 nM

Source: patent US12428416B2 (California Institute of Technology, priority 2018, dated 2025)
